Reference: patent US10052385B2, “Formulations of bendamustine” (Eagle Pharmaceuticals, Inc., priority 2012, dated 2018)
Structures can show the parent of a compound that is named as a salt. Where two headings read alike, the source gives them in different places.

Test: Solubility of bendamustine HCl in 0.9% saline with non-aqueous solubilizer (Example 1)
Format: physicochemical
Conditions: for solubility at 30 min: 22.5 °C; for solubility at 30 min / solubility at 24 h: thermodynamic from solid; for solubility at 24 h: 5 °C
Protocol: Essentially, an excess of bendamustine HCl was added to solvents comprising of various volume percent of the non-aqueous solubilizer in 0.9% saline, and allowed to equilibrate with shaking for 30 minutes at room temperature, or for 24 hours at refrigerated temperature. At the end of the equilibration step, the suspensions were filtered through a 0.2 micron filter to remove undissolved bendamustine, and the filtrate solutions analyzed for bendamustine HCl content using a HPLC assay; quantification was performed against a bendamustine HCl reference standard.

Cn1c(CCCC(=O)O)nc2cc(N(CCCl)CCCl)ccc21 [bendamustine HCl]
solubility at 30 min (0.9% saline with 5 mg/ml monothioglycerol, saline or isotonic, Room temperature, API Source B, solvent also contained 5 mg/ml monothioglycerol, 100.0% Normal Saline, 0.0% Non-aqueous Solubilizer, read-out: Solubility of bendamustine HCl): ~3300 µg/mL
solubility at 24 h (0.9% saline, saline or isotonic, 5° C., API Source A, 100.0% Normal Saline, 0.0% Non-aqueous Solubilizer (90:10 PEG 400/PG), read-out: Solubility of bendamustine HCl): 1180 µg/mL
solubility at 30 min (0.9% saline, saline or isotonic, Room temperature, API Source A, 100.0% Normal Saline, 0.0% Non-aqueous Solubilizer (90:10 PEG 400/PG), read-out: Solubility of bendamustine HCl): 3460 µg/mL
solubility at 24 h (aqueous with cosolvent or surfactant or cyclodextrin, 5° C., API Source A, 80.0% Normal Saline, 20.0% Non-aqueous Solubilizer (90:10 PEG 400/PG), read-out: Solubility of bendamustine HCl): 3820 µg/mL
solubility at 24 h (aqueous with cosolvent or surfactant or cyclodextrin, 5° C., API Source A, 82.5% Normal Saline, 17.5% Non-aqueous Solubilizer (90:10 PEG 400/PG), read-out: Solubility of bendamustine HCl): 3330 µg/mL
solubility at 24 h (aqueous with cosolvent or surfactant or cyclodextrin, 5° C., API Source A, 85.0% Normal Saline, […] Non-aqueous Solubilizer (90:10 PEG 400/PG), read-out: Solubility of bendamustine HCl): 2900 µg/mL
solubility at 24 h (aqueous with cosolvent or surfactant or cyclodextrin, 5° C., API Source A, 90.0% Normal Saline, 10.0% Non-aqueous Solubilizer (90:10 PEG 400/PG), read-out: Solubility of bendamustine HCl): 2430 µg/mL
solubility at 24 h (aqueous with cosolvent or surfactant or cyclodextrin, 5° C., API Source A, 95.0% Normal Saline, 5.0% Non-aqueous Solubilizer (90:10 PEG 400/PG), read-out: Solubility of bendamustine HCl): 2020 µg/mL
solubility at 24 h (aqueous with cosolvent or surfactant or cyclodextrin, refrigerated, 19.4% of the non-aqueous component in the final 100 ml admixture, read-out: solubility of bendamustine HCl in final admixture): ~3800 µg/mL
solubility at 30 min (aqueous with cosolvent or surfactant or cyclodextrin, Room temperature, API Source A, 70.0% Normal Saline, 30.0% Non-aqueous Solubilizer (90:10 PEG 400/PG), read-out: Solubility of bendamustine HCl): 12000 µg/mL
solubility at 30 min (aqueous with cosolvent or surfactant or cyclodextrin, Room temperature, API Source A, 80.0% Normal Saline, 20.0% Non-aqueous Solubilizer (90:10 PEG 400/PG), read-out: Solubility of bendamustine HCl): 8640 µg/mL
solubility at 30 min (aqueous with cosolvent or surfactant or cyclodextrin, Room temperature, API Source A, 85.0% Normal Saline, […] Non-aqueous Solubilizer (90:10 PEG 400/PG), read-out: Solubility of bendamustine HCl): 7010 µg/mL
solubility at 30 min (aqueous with cosolvent or surfactant or cyclodextrin, Room temperature, API Source A, 90.0% Normal Saline, 10.0% Non-aqueous Solubilizer (90:10 PEG 400/PG), read-out: Solubility of bendamustine HCl): 5630 µg/mL
solubility at 30 min (aqueous with cosolvent or surfactant or cyclodextrin, Room temperature, API Source A, 95.0% Normal Saline, 5.0% Non-aqueous Solubilizer (90:10 PEG 400/PG), read-out: Solubility of bendamustine HCl): 4430 µg/mL
solubility at 30 min (aqueous with cosolvent or surfactant or cyclodextrin, room temperature, 16.1% of the non-aqueous component in the final 50 ml admixture, read-out: room temperature solubility of bendamustine HCl in final admixture): ~6500 µg/mL
solubility at 30 min (saline or isotonic, Room temperature, API Source A, 97.5% Normal Saline, 2.5% Non-aqueous Solubilizer (90:10 PEG 400/PG), read-out: Solubility of bendamustine HCl): 3990 µg/mL
solubility at 30 min (saline or isotonic, Room temperature, API Source B, solvent also contained 5 mg/ml monothioglycerol, 97.5% Normal Saline, 2.5% Non-aqueous Solubilizer, read-out: Solubility of bendamustine HCl): 3890 µg/mL
Solubility of bendamustine HCl (Room temperature, API Source B, solvent also contained 5 mg/ml monothioglycerol, 70.0% Normal Saline, 30.0% Non-aqueous Solubilizer): 11407 µg/mL
Solubility of bendamustine HCl (Room temperature, API Source B, solvent also contained 5 mg/ml monothioglycerol, 80.0% Normal Saline, 20.0% Non-aqueous Solubilizer, HCl): 8492 µg/mL
Solubility of bendamustine HCl (Room temperature, API Source B, solvent also contained 5 mg/ml monothioglycerol, 82.5% Normal Saline, 17.5% Non-aqueous Solubilizer): 7641 µg/mL
Solubility of bendamustine HCl (Room temperature, API Source B, solvent also contained 5 mg/ml monothioglycerol, 85.0% Normal Saline, […] Non-aqueous Solubilizer): 6554 µg/mL
Solubility of bendamustine HCl (Room temperature, API Source B, solvent also contained 5 mg/ml monothioglycerol, 87.5% Normal Saline, 12.5% Non-aqueous Solubilizer): 5825 µg/mL
Solubility of bendamustine HCl (Room temperature, API Source B, solvent also contained 5 mg/ml monothioglycerol, 90.0% Normal Saline, 10.0% Non-aqueous Solubilizer): 5351 µg/mL
Solubility of bendamustine HCl (Room temperature, API Source B, solvent also contained 5 mg/ml monothioglycerol, 92.5% Normal Saline, 7.5% Non-aqueous Solubilizer): 4742 µg/mL
Solubility of bendamustine HCl (Room temperature, API Source B, solvent also contained 5 mg/ml monothioglycerol, 95.0% Normal Saline, 5.0% Non-aqueous Solubilizer): 4204 µg/mL
